Reference: the kinase profiling compilation of Christmann-Franck et al. (2016)
Blank lines part the entries; values can stand above or below the compound they belong to.

Legend:
Assay in all cases: Caliper, Mobility shift assay off-chip
PDGFRA (human) = PDGFRA (human) (UniProt P16234)
AXL (human) = AXL (human) (UniProt P30530)
MARK1 (human) = MARK1 (human) (UniProt Q9P0L2)
CLK3 (human) = CLK3 (human) (UniProt P49761)
FGFR2 (human) = FGFR2 (human) (UniProt P21802)
PIM3 (human) = PIM3 (human) (UniProt Q86V86)
DYRK2 (human) = DYRK2 (human) (UniProt Q92630)
MAPK12 (human) = MAPK12 (human) (UniProt P53778)
MST1R (human) = MST1R (human) (UniProt Q04912)
MAPK3 (human) = MAPK3 (human) (UniProt P27361)
EPHA7 (human) = EPHA7 (human) (UniProt Q15375)
CSK (human) = CSK (human) (UniProt P41240)
PBK (human) = PBK (human) (UniProt Q96KB5)
HIPK4 (human) = HIPK4 (human) (UniProt Q8NE63)
EPHA2 (human) = EPHA2 (human) (UniProt P29317)
PASK (human) = PASK (human) (UniProt Q96RG2)
TYK2 JH1 JH2 (human) = TYK2 JH1 JH2 (human) (UniProt P29597)
PIM2 (human) = PIM2 (human) (UniProt Q9P1W9)
BTK (human) = BTK (human) (UniProt Q06187)
AURKB (human) = AURKB (human) (UniProt Q96GD4)
AKT1 (human) = AKT1 (human) (UniProt P31749)
TSSK2 (human) = TSSK2 (human) (UniProt Q96PF2)
TSSK1B (human) = TSSK1B (human) (UniProt Q9BXA7)
NEK2 (human) = NEK2 (human) (UniProt P51955)
IGF1R (human) = IGF1R (human) (UniProt P08069)
SPHK1 (human) = SPHK1 (human) (UniProt Q9NYA1)
BLK (human) = BLK (human) (UniProt P51451)
CDK4 (human) = CDK4 (human) (UniProt P11802)
RPS6KA3 KD1 KD2 (human) = RPS6KA3 KD1 KD2 (human) (UniProt P51812)
NEK9 (human) = NEK9 (human) (UniProt Q8TD19)
SYK (human) = SYK (human) (UniProt P43405)
AKT2 (human) = AKT2 (human) (UniProt P31751)
LATS2 (human) = LATS2 (human) (UniProt Q9NRM7)

Chain of DYRK2 (human) (Q92630 whole entry, looked up): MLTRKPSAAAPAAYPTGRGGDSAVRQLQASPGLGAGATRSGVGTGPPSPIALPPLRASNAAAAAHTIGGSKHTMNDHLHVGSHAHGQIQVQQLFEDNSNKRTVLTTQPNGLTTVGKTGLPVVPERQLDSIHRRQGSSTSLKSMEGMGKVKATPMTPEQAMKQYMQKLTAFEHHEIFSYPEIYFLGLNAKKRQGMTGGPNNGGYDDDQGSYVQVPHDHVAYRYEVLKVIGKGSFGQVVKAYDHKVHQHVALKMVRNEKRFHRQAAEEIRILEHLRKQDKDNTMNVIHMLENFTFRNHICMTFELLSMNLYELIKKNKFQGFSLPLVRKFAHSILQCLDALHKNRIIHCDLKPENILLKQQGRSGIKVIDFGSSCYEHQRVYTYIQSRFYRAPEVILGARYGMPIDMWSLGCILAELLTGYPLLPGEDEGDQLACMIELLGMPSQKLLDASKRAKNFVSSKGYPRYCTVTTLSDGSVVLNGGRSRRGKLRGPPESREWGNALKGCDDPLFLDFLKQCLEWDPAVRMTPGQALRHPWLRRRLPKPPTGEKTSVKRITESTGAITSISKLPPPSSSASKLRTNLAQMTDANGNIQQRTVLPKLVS
Chain of PBK (human) (Q96KB5 whole entry, looked up): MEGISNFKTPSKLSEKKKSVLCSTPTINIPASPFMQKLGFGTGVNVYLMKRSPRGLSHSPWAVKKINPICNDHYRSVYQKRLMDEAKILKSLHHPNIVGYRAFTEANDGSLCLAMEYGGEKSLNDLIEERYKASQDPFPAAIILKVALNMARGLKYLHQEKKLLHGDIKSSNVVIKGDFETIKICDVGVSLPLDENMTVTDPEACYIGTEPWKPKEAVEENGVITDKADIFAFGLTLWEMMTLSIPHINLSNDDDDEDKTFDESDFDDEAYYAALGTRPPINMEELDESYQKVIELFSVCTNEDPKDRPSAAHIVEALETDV
Chain of AXL (human) (P30530 whole entry, looked up): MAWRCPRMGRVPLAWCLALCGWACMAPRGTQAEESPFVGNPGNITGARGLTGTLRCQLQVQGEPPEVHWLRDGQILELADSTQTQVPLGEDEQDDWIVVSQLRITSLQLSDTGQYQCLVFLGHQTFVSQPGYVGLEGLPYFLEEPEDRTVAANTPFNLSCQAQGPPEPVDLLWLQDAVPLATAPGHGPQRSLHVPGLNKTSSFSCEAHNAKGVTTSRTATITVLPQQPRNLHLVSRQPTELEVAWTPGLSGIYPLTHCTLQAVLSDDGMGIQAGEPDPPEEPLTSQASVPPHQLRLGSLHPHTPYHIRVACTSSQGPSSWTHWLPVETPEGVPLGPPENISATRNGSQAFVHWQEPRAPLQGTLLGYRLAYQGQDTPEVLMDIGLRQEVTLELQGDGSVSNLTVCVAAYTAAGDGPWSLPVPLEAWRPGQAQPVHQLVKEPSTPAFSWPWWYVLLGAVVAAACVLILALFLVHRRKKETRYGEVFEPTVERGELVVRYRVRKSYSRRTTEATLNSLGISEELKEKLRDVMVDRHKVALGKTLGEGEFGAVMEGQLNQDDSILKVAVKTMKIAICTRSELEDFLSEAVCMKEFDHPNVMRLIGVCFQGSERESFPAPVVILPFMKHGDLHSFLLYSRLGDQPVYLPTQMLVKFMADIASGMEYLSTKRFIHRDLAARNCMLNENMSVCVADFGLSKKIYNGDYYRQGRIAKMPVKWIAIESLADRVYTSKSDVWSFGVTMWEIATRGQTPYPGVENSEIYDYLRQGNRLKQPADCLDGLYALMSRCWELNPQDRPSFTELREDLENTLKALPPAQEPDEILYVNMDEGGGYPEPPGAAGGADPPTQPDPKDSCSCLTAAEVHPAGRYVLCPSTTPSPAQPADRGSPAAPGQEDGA
Chain of MARK1 (human) (Q9P0L2 whole entry, looked up): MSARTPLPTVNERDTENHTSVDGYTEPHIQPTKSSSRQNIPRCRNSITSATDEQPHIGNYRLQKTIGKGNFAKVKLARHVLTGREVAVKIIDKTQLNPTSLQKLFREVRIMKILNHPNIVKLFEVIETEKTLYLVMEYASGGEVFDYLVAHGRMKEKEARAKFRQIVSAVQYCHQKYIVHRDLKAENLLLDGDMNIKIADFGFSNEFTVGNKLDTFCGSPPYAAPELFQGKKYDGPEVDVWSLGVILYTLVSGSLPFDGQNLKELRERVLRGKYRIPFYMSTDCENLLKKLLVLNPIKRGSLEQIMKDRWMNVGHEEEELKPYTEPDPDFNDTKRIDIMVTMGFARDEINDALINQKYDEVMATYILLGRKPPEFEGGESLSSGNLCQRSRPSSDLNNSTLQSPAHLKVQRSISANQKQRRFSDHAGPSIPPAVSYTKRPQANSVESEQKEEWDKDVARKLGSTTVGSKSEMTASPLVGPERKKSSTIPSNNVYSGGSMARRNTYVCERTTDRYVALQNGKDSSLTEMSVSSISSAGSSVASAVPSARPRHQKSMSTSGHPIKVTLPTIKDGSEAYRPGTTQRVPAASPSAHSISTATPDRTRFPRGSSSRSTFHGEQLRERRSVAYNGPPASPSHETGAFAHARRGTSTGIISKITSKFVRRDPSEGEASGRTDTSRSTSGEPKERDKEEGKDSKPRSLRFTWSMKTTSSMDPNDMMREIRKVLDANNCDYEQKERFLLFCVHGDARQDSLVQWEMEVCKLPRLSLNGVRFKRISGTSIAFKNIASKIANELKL
Chain of MAPK12 (human) (P53778 whole entry, looked up): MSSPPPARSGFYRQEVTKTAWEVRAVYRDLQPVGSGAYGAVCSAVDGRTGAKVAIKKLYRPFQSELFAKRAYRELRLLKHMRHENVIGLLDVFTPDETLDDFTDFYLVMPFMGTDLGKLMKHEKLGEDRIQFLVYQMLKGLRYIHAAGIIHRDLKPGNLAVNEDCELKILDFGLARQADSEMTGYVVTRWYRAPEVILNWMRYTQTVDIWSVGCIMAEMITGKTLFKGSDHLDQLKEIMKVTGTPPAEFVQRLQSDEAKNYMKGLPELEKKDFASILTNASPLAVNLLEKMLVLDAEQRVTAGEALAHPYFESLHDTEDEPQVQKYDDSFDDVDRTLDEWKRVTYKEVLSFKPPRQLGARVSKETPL
Chain of BTK (human) (Q06187 whole entry, looked up): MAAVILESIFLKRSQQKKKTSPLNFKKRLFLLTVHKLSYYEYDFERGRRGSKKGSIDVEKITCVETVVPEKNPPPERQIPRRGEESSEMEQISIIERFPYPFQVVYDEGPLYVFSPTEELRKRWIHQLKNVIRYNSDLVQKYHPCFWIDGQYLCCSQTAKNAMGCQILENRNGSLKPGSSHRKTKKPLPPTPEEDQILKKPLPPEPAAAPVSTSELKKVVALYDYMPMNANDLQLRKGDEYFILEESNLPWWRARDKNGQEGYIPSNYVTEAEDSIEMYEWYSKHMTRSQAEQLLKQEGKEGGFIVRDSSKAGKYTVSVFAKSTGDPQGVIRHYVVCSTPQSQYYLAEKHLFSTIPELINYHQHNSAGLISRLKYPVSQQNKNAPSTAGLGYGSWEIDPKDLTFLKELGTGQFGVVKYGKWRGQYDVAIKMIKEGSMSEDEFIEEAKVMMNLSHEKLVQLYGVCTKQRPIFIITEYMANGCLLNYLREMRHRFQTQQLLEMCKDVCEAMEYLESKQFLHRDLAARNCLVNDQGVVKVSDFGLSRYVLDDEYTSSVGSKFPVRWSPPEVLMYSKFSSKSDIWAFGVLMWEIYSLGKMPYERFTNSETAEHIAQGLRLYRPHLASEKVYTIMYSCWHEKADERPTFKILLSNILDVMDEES
Chain of MAPK3 (human) (P27361 whole entry, looked up): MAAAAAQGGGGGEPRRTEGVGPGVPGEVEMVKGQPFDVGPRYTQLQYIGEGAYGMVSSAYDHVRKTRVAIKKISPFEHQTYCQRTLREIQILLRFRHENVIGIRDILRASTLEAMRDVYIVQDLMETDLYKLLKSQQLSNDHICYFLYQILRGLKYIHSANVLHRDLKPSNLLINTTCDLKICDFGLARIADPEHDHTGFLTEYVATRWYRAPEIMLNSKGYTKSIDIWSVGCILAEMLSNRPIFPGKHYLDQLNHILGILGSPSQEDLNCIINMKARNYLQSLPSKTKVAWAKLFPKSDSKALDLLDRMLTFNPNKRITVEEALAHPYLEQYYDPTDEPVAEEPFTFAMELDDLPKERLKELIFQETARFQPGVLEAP
Chain of RPS6KA3 KD1 KD2 (human) (P51812 whole entry, looked up): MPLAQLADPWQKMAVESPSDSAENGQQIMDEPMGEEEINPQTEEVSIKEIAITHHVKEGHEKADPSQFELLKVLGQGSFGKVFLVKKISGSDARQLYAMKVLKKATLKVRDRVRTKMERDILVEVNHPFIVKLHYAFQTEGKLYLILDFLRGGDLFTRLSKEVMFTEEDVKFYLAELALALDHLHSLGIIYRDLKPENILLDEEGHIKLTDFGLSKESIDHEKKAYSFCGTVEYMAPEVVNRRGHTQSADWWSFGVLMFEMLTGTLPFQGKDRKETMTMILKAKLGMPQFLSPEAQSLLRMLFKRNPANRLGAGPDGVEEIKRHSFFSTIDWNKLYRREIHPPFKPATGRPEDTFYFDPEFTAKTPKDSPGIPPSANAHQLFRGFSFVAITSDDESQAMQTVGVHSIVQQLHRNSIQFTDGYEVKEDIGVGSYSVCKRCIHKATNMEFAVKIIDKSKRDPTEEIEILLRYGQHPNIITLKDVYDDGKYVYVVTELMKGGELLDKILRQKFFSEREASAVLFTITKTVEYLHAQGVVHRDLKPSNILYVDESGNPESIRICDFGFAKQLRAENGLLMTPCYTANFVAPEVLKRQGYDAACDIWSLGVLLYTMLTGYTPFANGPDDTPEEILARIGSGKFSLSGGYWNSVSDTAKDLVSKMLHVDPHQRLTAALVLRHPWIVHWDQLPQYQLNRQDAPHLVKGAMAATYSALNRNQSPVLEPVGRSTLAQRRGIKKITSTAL

inhibition (PDGFRA (human); compound 0.2 µM): 100% | inhibition (AXL (human); compound 0.2 µM): 96.8% | inhibition (AXL (human); compound 4.0 µM): 102% | inhibition (MARK1 (human); compound 0.2 µM): 68.8% | inhibition (MARK1 (human); compound 4.0 µM): 96.8% | inhibition (CLK3 (human); compound 0.2 µM): 9.2% | inhibition (CLK3 (human); compound 4.0 µM): 37% | inhibition (FGFR2 (human); compound 0.2 µM): 71.3% | inhibition (FGFR2 (human); compound 4.0 µM): 99.7% | inhibition (PIM3 (human); compound 0.2 µM): 3.1% | inhibition (PIM3 (human); compound 4.0 µM): 42.9% | inhibition (DYRK2 (human); compound 0.2 µM): 25% | inhibition (DYRK2 (human); compound 4.0 µM): 87.4% | inhibition (MAPK12 (human); compound 0.2 µM): -4.2% | inhibition (MAPK12 (human); compound 4.0 µM): -6.2% | inhibition (MST1R (human); compound 0.2 µM): 6.4% | inhibition (MST1R (human); compound 4.0 µM): 48.8% | inhibition (MAPK3 (human); compound 0.2 µM): -4.8% | inhibition (MAPK3 (human); compound 4.0 µM): -0.9% | inhibition (EPHA7 (human); compound 0.2 µM): 19.8% | inhibition (EPHA7 (human); compound 4.0 µM): 82% | inhibition (CSK (human); compound 0.2 µM): 1.2% | inhibition (CSK (human); compound 4.0 µM): 17.6% | inhibition (PBK (human); compound 0.2 µM): -6.1% | inhibition (PBK (human); compound 4.0 µM): -7.6% | inhibition (HIPK4 (human); compound 0.2 µM): 67.4% | inhibition (HIPK4 (human); compound 4.0 µM): 96.8% | inhibition (EPHA2 (human); compound 0.2 µM): -1.9% | inhibition (EPHA2 (human); compound 4.0 µM): 24.9% | inhibition (PASK (human); compound 0.2 µM): -4% | inhibition (PASK (human); compound 4.0 µM): 17.8% | inhibition (TYK2 JH1 JH2 (human); compound 0.2 µM): 21.6% | inhibition (TYK2 JH1 JH2 (human); compound 4.0 µM): 78.3% | inhibition (PIM2 (human); compound 0.2 µM): 2.5% | inhibition (PIM2 (human); compound 4.0 µM): 12.1% | inhibition (BTK (human); compound 0.2 µM): 2.7% | inhibition (BTK (human); compound 4.0 µM): 51.2% | inhibition (AURKB (human); compound 0.2 µM): 46% | inhibition (AURKB (human); compound 4.0 µM): 90% | inhibition (AKT1 (human); compound 0.2 µM): -0.8% | inhibition (AKT1 (human); compound 4.0 µM): 35.7% | inhibition (TSSK2 (human); compound 0.2 µM): -0.6% | inhibition (TSSK2 (human); compound 4.0 µM): 35.3% | inhibition (TSSK1B (human); compound 0.2 µM): 63.2% | inhibition (TSSK1B (human); compound 4.0 µM): 95.5% | inhibition (NEK2 (human); compound 0.2 µM): 8.3% | inhibition (NEK2 (human); compound 4.0 µM): 49.2% | inhibition (IGF1R (human); compound 0.2 µM): 40.1% | inhibition (IGF1R (human); compound 4.0 µM): 93% | inhibition (SPHK1 (human); compound 0.2 µM): -10.4% | inhibition (SPHK1 (human); compound 4.0 µM): -9.1% | inhibition (BLK (human); compound 0.2 µM): 79.2% | inhibition (BLK (human); compound 4.0 µM): 101% | inhibition (CDK4 (human); compound 0.2 µM): 16.6% | inhibition (CDK4 (human); compound 4.0 µM): 62.5% | inhibition (RPS6KA3 KD1 KD2 (human); compound 0.2 µM): 61.7%
SMILES: CCN(CC)CCNC(=O)c1c(C)[nH]c(/C=C2\C(=O)Nc3ccc(F)cc32)c1C
inhibition (NEK9 (human); compound 0.2 µM): 0% | inhibition (NEK9 (human); compound 4.0 µM): 20.7%

inhibition (PDGFRA (human); compound 0.02 µM): 97.3% | inhibition (PDGFRA (human); compound 0.2 µM): 105% | inhibition (AXL (human); compound 0.02 µM): -7.4% | inhibition (AXL (human); compound 0.2 µM): 7.1% | inhibition (MARK1 (human); compound 0.02 µM): -0.8% | inhibition (MARK1 (human); compound 0.2 µM): 0.9% | inhibition (CLK3 (human); compound 0.02 µM): -7.5% | inhibition (CLK3 (human); compound 0.2 µM): 5.9% | inhibition (PIM3 (human); compound 0.02 µM): -1.8% | inhibition (PIM3 (human); compound 0.2 µM): -4.2% | inhibition (DYRK2 (human); compound 0.02 µM): -7.8% | inhibition (DYRK2 (human); compound 0.2 µM): 6.1% | inhibition (MAPK12 (human); compound 0.02 µM): -5.9% | inhibition (MAPK12 (human); compound 0.2 µM): -0.3% | inhibition (MST1R (human); compound 0.02 µM): -4.7% | inhibition (MST1R (human); compound 0.2 µM): 5.3% | inhibition (MAPK3 (human); compound 0.02 µM): -2.3% | inhibition (MAPK3 (human); compound 0.2 µM): -0.7% | inhibition (EPHA7 (human); compound 0.02 µM): 2% | inhibition (EPHA7 (human); compound 0.2 µM): 26.5% | inhibition (SYK (human); compound 0.02 µM): -7.3% | inhibition (SYK (human); compound 0.2 µM): -11.1% | inhibition (CSK (human); compound 0.02 µM): -9.3% | inhibition (CSK (human); compound 0.2 µM): 2.6% | inhibition (PBK (human); compound 0.02 µM): -6% | inhibition (PBK (human); compound 0.2 µM): -5.2% | inhibition (HIPK4 (human); compound 0.02 µM): 84% | inhibition (HIPK4 (human); compound 0.2 µM): 98.4% | inhibition (EPHA2 (human); compound 0.02 µM): -2.7% | inhibition (EPHA2 (human); compound 0.2 µM): 9.8% | inhibition (PASK (human); compound 0.02 µM): -1% | inhibition (PASK (human); compound 0.2 µM): 1.7% | inhibition (TYK2 JH1 JH2 (human); compound 0.02 µM): -2.4% | inhibition (AKT2 (human); compound 0.02 µM): -9% | inhibition (AKT2 (human); compound 0.2 µM): -8.2% | inhibition (PIM2 (human); compound 0.02 µM): -0.2% | inhibition (PIM2 (human); compound 0.2 µM): 1.2% | inhibition (BTK (human); compound 0.02 µM): -0.7% | inhibition (BTK (human); compound 0.2 µM): 14.6% | inhibition (AKT1 (human); compound 0.02 µM): -2.8% | inhibition (AKT1 (human); compound 0.2 µM): -1.4% | inhibition (TSSK2 (human); compound 0.02 µM): -3.9% | inhibition (TSSK2 (human); compound 0.2 µM): -2.4% | inhibition (TSSK1B (human); compound 0.02 µM): -3.7% | inhibition (TSSK1B (human); compound 0.2 µM): -2.9% | inhibition (LATS2 (human); compound 0.02 µM): -4.4% | inhibition (LATS2 (human); compound 0.2 µM): 2.8% | inhibition (NEK2 (human); compound 0.02 µM): -2.3% | inhibition (NEK2 (human); compound 0.2 µM): 8.8% | inhibition (IGF1R (human); compound 0.02 µM): -1.8% | inhibition (IGF1R (human); compound 0.2 µM): 5% | inhibition (SPHK1 (human); compound 0.02 µM): -3.1% | inhibition (SPHK1 (human); compound 0.2 µM): 3.2% | inhibition (BLK (human); compound 0.02 µM): 1% | inhibition (BLK (human); compound 0.2 µM): 6.4% | inhibition (CDK4 (human); compound 0.02 µM): -2.3% | inhibition (CDK4 (human); compound 0.2 µM): -2.5% | inhibition (RPS6KA3 KD1 KD2 (human); compound 0.02 µM): -5% | inhibition (RPS6KA3 KD1 KD2 (human); compound 0.2 µM): -5.9%
SMILES: CNC(=O)c1cc(Oc2ccc(NC(=O)Nc3ccc(Cl)c(C(F)(F)F)c3)cc2)ccn1
inhibition (NEK9 (human); compound 0.02 µM): -3.7% | inhibition (NEK9 (human); compound 0.2 µM): -5.9%
